Laboratory results: US20080305978A1, “Cleaning compositions containing a hydrophilic fragrance” (S.C. Johnson & Son, Inc., priority 2007, published 2008)

Tests used:
[1] = Characteristics of fragrance components in words (vapor pressure, water solubility, oxidation); format: physicochemical
From the text: This test evaluated properties of fragrances with different levels of water solubility with regard to their effect on contributing to streaking/blooming.

[2] = Table 5; cited from earlier work

Characteristics: water solubility ([1]; Table 5, in words) | Water Solubility ([1]; Table 6, in words) | Water Solubility ([1]; text b58, in words) | Characteristics: vapor pressure ([1]; Table 5, in words) | Characteristics: oxidation ([1]; Table 5, in words) | SMILES | Vapor Pressure mm/Hg [2]
High water | High | high | – | – | CCOC(=O)CC1(C)OCCO1 [Applinal = Fructone, Applinal] | –
(2) Reasonable | Medium | – | (1) Fairly high | – | C=CC(C)CCCC(C)(C)O (stereo not drawn) [Dihydromyrcenol] | 0.7 mm/Hg
(3) Low water | Low | – | (1) Low vapor | (2) Easily oxidized | CC(C=O)Cc1ccc(C(C)(C)C)cc1 (stereo not drawn) [Lilial] | 0.004 mm/Hg
